Structures are written as SMILES. Like-named read-outs stand apart in the source and are kept apart here.

Experiment [1] concerns the target T1, PRMT5-MEP50 enzyme (Homo sapiens, UniProt O14744).
T1 construct: One virus expresses full length human PRMT5 with Flag-tag at N-terminus; Flag (N); purchased Charles River (Argenta); host or cells: insect cells (Sf9), baculovirus co-infection
Kind of experiment: In vitro assay 1a: high throughput mass spectrometer assay of SAH formation, 10 nM enzyme, 60 min. It is filed as biochemical. As to conditions: averaged values, PRMT5-MEP50, 10 nM enzyme. The source says:
Experimental Procedures In Vitro Assay (Assay 1a and 1b)
PRMT5-MEP50 enzyme was purchased from Charles River (Argenta). The enzyme complex was produced in insect cells (Sf9) infected simultaneously with two baculoviruses. One virus expresses full length human PRMT5 with Flag-tag at N-terminus, the second virus expresses full length MEP50 with His6-TEV cleavage at N-terminus. The protein was affinity purified using anti-Flag (M2) beads eluted with 3×FLAG peptide, followed by His-Select eluted with 0.5M imidazole. Eluted protein was then dialysed against tris-buffered saline (TBS) (pH 8.0) containing 20% glycerol and 3 mM dithiothreitol (DTT).
Full-length untagged human recombinant histone H2A (residues 1-130, Genbank Accession #NM_021052 MW=14.1 kDa) expressed in E. coli was purchased from Reaction Biology Corporation, Cat #HMT-11-146. Reagents used for making reaction buffer or stopping reaction were purchased including Tris base (Sigma Cat #T-1503), NaCl (Sigma Cat #RGF-3270), MgCl2 (Sigma Cat #M0250), DTTI (Invitrogen Cat #15508-013) and Formic Acid (Riedel deHaen, Cat #33015)
High Throughput Mass Spectrometer Assay
PRMT5 catalyzes the sequential methylations of the terminal nitrogen atoms on the guanidine groups of arginine residues within proteins using co-substrate S-adenosyl-L-methionine (AdoMet, SAM), forming mono-methyl (MMA), symmetric-dimethyl arginine (sDMA) and S-adenosyl-L-homocysteine (AdoHcy, SAH). The enzyme activity was determined by following the product SAH formation using high throughput mass spectrometry (Agilent Rapidfire 300 System coupled to a Sciex 4000 series QTrap® triple-quad MS/MS). The reaction buffer was 20 mM Tris-HCl, pH 8.5, 50 mM NaCl, 5 mM MgCl2 and 1 mM DTT. The reaction activity was stopped using 1% formic acid (final concentration).
The IC50 Studies were performed using eleven point dosing series made for each compound by serially diluted 1:2 in dimethyl sulfoxide (DMSO), with point 12 being a DMSO control. Compounds were first spotted to plates, and followed by addition of 2 μM SAM and 0.6 μM H2A (histone H2A) solution mixture. The same volume of enzyme solution was added to initiate the enzymatic reactions. The final concentrations of the reaction are at 1 μM SAM, 0.3 μM H2A and 10 nM enzyme (assay 1a) or 1.25 nM enzyme (assay 1b). The reaction was incubated at 30° C. for 60 minutes (min) when 10 nM enzyme was used and for 120 min when 1.25 nM enzyme was used. Subsequently, the reaction was quenched by addition of formic acid to a final concentration of 1%. The inhibitions of SAH formation in the presence of compounds were calculated as a percentage of the control relative to the uninhibited reaction as a function of inhibitor concentration. The data were fit as follows: Y=Bottom+(Top−Bottom)/(1+10^((log IC50−X)*h))
where IC50 is the inhibitor concentration (same unit as X) at 50% inhibition and h is the Hill slope. Y is percent of inhibition, X is log of compound concentration. Bottom and Top are the plateaus in same units as Y.

The target in experiment [2] is T1, PRMT5-MEP50 enzyme. Kind of experiment: In vitro assay 1b: high throughput mass spectrometer assay of SAH formation, 1.25 nM enzyme, 120 min. It is filed as biochemical. The method, boiled down:
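Flag-PRMT5/His-MEP50 complex from Sf9 cells, with 1 μM SAM and 0.3 μM full-length histone H2A in pH 8.5 Tris buffer, at 30 °C; 10 nM enzyme for 60 min (1a) or 1.25 nM for 120 min (1b). Formic acid-quenched SAH read by RapidFire MS/MS; 11-point IC50 with Hill fit.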

The subject of experiment [3] is nuclear symmetric Arginine dimethylation in A549 cells. Kind of experiment: PD assay (assay 2): inhibition of nuclear symmetric Arginine dimethylation (SYM10 immunohistochemistry), 48 h. It is filed as cell-based. The note with it: Homo sapiens. An outline of the steps:
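Cells seeded at 400/well overnight, then treated 48 h at 37 °C, final DMSO 0.2%. Fixed and stained with SYM10 antibody plus Alexa 488 secondary, Hoechst and CellMask, then imaged on Opera. Normalized to DMSO (high) and 10 μM reference compound (low); averaged pIC50 reported.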

Setting [4] is: read-out: pIC50 Assay 1a (converted).
Where [5] appears, read: averaged values, PRMT5-MEP50, 1.25 nM enzyme, 120 min, read-out: pIC50 Assay 1b (converted).
The mark [6] stands for this setting: A549, averaged values, PD assay, A549 cells, symmetric Arginine dimethylation, read-out: pIC50 Assay 2 (converted).
Setting [7] is: A549, read-out: pIC50 Assay 2 (converted).

T1 sequence (O14744 whole entry): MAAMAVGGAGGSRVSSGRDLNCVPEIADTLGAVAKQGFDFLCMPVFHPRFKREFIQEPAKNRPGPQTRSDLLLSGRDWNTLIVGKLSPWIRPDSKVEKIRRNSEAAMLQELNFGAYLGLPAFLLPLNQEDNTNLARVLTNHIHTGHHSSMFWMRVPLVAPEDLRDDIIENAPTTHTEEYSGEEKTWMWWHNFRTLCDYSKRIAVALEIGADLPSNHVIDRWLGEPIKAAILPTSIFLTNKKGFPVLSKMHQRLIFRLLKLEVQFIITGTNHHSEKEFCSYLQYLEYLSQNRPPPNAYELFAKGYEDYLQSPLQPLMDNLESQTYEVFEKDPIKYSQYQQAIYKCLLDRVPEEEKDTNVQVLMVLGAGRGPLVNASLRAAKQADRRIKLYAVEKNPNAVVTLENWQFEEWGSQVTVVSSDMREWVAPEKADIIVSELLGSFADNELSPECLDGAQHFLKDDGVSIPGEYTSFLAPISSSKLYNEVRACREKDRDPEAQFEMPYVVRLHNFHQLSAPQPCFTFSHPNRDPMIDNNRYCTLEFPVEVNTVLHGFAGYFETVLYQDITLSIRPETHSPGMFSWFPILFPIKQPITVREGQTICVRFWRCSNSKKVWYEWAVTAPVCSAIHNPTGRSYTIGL
T1 sequence (Q9BQA1 whole entry partner): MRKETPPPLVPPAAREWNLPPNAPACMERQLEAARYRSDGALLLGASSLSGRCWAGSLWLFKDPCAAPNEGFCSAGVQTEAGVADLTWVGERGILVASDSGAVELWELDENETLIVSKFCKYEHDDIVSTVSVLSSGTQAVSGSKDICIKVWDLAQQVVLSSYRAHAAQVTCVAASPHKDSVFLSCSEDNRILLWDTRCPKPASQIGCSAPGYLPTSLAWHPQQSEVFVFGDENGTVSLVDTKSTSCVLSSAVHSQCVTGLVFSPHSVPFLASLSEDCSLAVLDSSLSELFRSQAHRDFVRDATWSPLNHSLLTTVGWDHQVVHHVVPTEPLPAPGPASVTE

On to `O[C@@H]1[C@H](O)[C@@H](CCc2ccc3ccc(NCC4CC4)nc3c2)O[C@H]1n1ccc2cncnc21` [Compound 168], for which the IC50 was 3.98 nM in experiment [1] (setting [4]), 50.1 nM in experiment [2] (setting [5]) and 126 nM in experiment [3] (setting [6]).
With `Nc1ncnc2c1ccn2[C@@H]1C[C@H](CCc2ccc3ccc(NCC(F)F)nc3c2)[C@@H](O)[C@H]1O` [Compound 75], the figures for the IC50 in experiment [1] (setting [4]), in experiment [2] (setting [5]) and in experiment [3] (setting [6]) were 0.251 nM, 0.501 nM and 1.58 nM, respectively.
Taken in the same sequence, the figures for `Nc1ncc2ccc(CC[C@H]3C[C@@H](n4ccc5c(Cl)ncnc54)[C@H](O)[C@@H]3O)cc2n1` [Compound 215] were 7.94 nM, 39.8 nM and 1260 nM.
`COc1cnc2cc(OC[C@H]3O[C@@H](n4ccc5c(N)ncnc54)[C@H](O)[C@@H]3O)ccc2c1` [Compound 26]: the IC50 in experiment [1] (setting [4]) is 63.1 nM; in experiment [2] (setting [5]) it was 200 nM; in experiment [3] (setting [6]), around 251 nM.
Regarding `COCc1ccc2ccc(OC[C@H]3O[C@@H](n4ccc5c(N)ncnc54)[C@H](O)[C@@H]3O)cc2n1` [Compound 175], the results for the IC50 in experiment [1] (setting [4]), in experiment [2] (setting [5]) and in experiment [3] (setting [6]) were above 10000 nM, 3160 nM and above 10000 nM, respectively.
Turning to `Nc1ncnc2c1ccn2[C@@H]1O[C@H](COc2cc3ncccc3cc2I)[C@@H](O)[C@H]1O` [Compound 3], the IC50 in experiment [1] (setting [4]) was 39.8 nM; in experiment [2] (setting [5]) it was 158 nM; in experiment [3] (setting [6]) it was 631 nM.
With `Nc1ncnc2c1ccn2[C@@H]1C[C@H](/C=C/c2ccc3cccnc3c2)[C@@H](O)[C@H]1O` [Compound 55], the results for the IC50 in experiment [1] (pIC50 Assay 1a), in experiment [2] and in experiment [3] (setting [6]) were 7.94 nM, 31.6 nM and around 51.3 nM, respectively.
With `Nc1ncnc2c1ccn2[C@@H]1C[C@H](CCc2ccc3cccnc3c2)[C@@H](O)[C@H]1O` [Compound 56], the IC50 in experiment [1] (setting [4]) was 6.31 nM; in experiment [2] (setting [5]), 15.8 nM; in experiment [3] (setting [7]) it was 7.94 nM.
Take `Nc1ncnc2c1ccn2[C@@H]1O[C@H](COc2cc(Cl)c3cccnc3c2)[C@@H](O)[C@H]1O` [Compound 102]: the IC50 in experiment [1] (setting [4]) was 100 nM; in experiment [2] (setting [5]) it was 501 nM; in experiment [3] (setting [6]), above 10000 nM.
Turning to `CC(C)c1cnc2cc(OC[C@H]3O[C@@H](n4ccc5c(N)ncnc54)[C@H](O)[C@@H]3O)ccc2c1` [Compound 214], the IC50 in experiment [1] (setting [4]) is 31.6 nM; in experiment [2] (setting [5]), 100 nM; in experiment [3] (setting [6]) it was 398 nM.
Take `Nc1ncnn2c([C@@H]3O[C@H](/C=C/c4ccc5cccnc5c4)[C@@H](O)[C@H]3O)ccc12` [Compound 61]: the IC50 was 398 nM in experiment [1] (setting [4]), 1000 nM in experiment [2] (setting [5]) and around 1320 nM in experiment [3] (setting [6]).
Take `Nc1ccc2ccc(OC[C@H]3O[C@@H](n4ccc5c(O)ncnc54)[C@H](O)[C@@H]3O)cc2n1` [Compound 208]: the IC50 is 2510 nM in experiment [1] (setting [4]), 1260 nM in experiment [2] (setting [5]) and above 10000 nM in experiment [3] (setting [6]).
Take `Nc1ccc2ccc(OC[C@H]3O[C@@H](n4ccc5c(N)ncnc54)[C@H](O)[C@@H]3O)cc2n1` [Compound 218]: the figures for the IC50 in experiment [1] (setting [4]), in experiment [2] (setting [5]) and in experiment [3] (setting [7]) were 2.51 nM, 5.01 nM and 5.01 nM, respectively.
Turning to `CC(C)(C)Nc1ccc2ccc(CC[C@H]3C[C@@H](n4ccc5c(N)ncnc54)[C@H](O)[C@@H]3O)cc2n1` [Compound 150], the values for the IC50 in experiment [1] (setting [4]), in experiment [2] (setting [5]) and in experiment [3] (setting [6]) were 1 nM, 15.8 nM and 31.6 nM, respectively.
Taken in the same sequence, the figures for `COc1cc2c(N)c(C#N)cnc2cc1OC[C@H]1O[C@@H](n2ccc3c(N)ncnc32)[C@H](O)[C@@H]1O` [Compound 31] were 3160 nM, 3980 nM and above 20000 nM.
Turning to `Nc1ncnc2c1ccn2[C@@H]1O[C@H](COc2ccc3cc(Cl)cnc3c2Cl)[C@@H](O)[C@H]1O` [Compound 101], the IC50 in experiment [1] (setting [4]) is 1000 nM; in experiment [2] (setting [5]) it was 794 nM; in experiment [3] (setting [6]), 2000 nM.
For `Nc1ncnc2c1ccn2[C@@H]1O[C@H](COc2ccc3cc(Cl)cnc3c2)[C@@H](O)[C@H]1O` [Compound 25] the same measures were 12.6 nM, 39.8 nM and 126 nM.
`Nc1ncnc2c1ccn2[C@@H]1O[C@H](COc2ccc3cncnc3c2)[C@@H](O)[C@H]1O` [Compound 16]: the IC50 in experiment [1] (setting [4]) was 251 nM; in experiment [2] (setting [5]) it was 1260 nM; in experiment [3] (setting [6]), 5010 nM.
Taken in the same sequence, the figures for `Nc1ncnc2c1ccn2[C@@H]1C[C@H](CCc2ccc3cc(Br)c(NCC4CC4)nc3c2)[C@@H](O)[C@H]1O` [Compound 148] were 398 nM, 794 nM and 200 nM.
Take `CNc1ccc2ccc(CC[C@H]3C[C@@H](n4ccc5c(N)ncnc54)[C@H](O)[C@@H]3O)cc2n1` [Compound 126]: the IC50 in experiment [1] (setting [4]) was 0.501 nM; in experiment [2] (setting [5]), 2.51 nM; in experiment [3] (setting [7]), 0.316 nM.
For `COc1ncnc2c1ccn2[C@@H]1O[C@H](CN(C)c2ccc3cc(Br)cnc3c2)[C@@H](O)[C@H]1O` [Compound 88], the IC50 in experiment [1] (setting [4]) is above 10000 nM; in experiment [2] (setting [5]) it was 7940 nM; in experiment [3] (setting [6]), above 10000 nM.
On to `Nc1ncnc2c1ccn2[C@@H]1O[C@H](COc2ccc3c(C(F)(F)F)ccnc3c2)[C@@H](O)[C@H]1O` [Compound 99], for which the IC50 is above 10000 nM in experiment [1] (setting [4]), above 100000 nM in experiment [2] (setting [5]) and above 10000 nM in experiment [3] (setting [6]).
In the case of `CNc1ccc2ccc(CC[C@H]3O[C@@H](n4ccc5c(Cl)ncnc54)[C@H](O)[C@@H]3O)cc2n1` [Compound 128], the values for the IC50 in experiment [1] (setting [4]), in experiment [2] (setting [5]) and in experiment [3] (setting [6]) were 7.94 nM, 63.1 nM and 200 nM, respectively.
As for `Nc1ncnc2c1c(F)cn2[C@@H]1O[C@H](COc2ccc3cccnc3c2)[C@@H](O)[C@H]1O` [Compound 44], the IC50 in experiment [1] (setting [4]) is 63.1 nM; in experiment [2] (setting [5]), 126 nM; in experiment [3] (setting [6]), 251 nM.
For `O[C@@H]1[C@@H](CCc2ccc3ccc(NCc4ccc(Cl)cc4)nc3c2)C[C@@H](n2ccc3cncnc32)[C@@H]1O` [Compound 171] the same measures were 0.794 nM, 6.31 nM and 3.16 nM.
For `Nc1ncnc2c1ccn2[C@@H]1C[C@H](CCc2ccc3ccc(NCc4ccc(Cl)cc4)nc3c2)[C@@H](O)[C@H]1O` [Compound 124] the same measures were 2 nM, 5.01 nM and 0.631 nM.
For `O[C@@H]1[C@H](O)[C@@H](COc2ccc3ccc(NCC4CC4)nc3c2)O[C@H]1n1ccc2c(Cl)ncnc21` [Compound 140] the same measures were 6.31 nM, 50.1 nM and 794 nM.
`Cc1ncnc2c1ccn2[C@@H]1C[C@H](CCc2ccc3ccc(NCC4CC4)nc3c2)[C@@H](O)[C@H]1O` [Compound 190]: the IC50 was 0.501 nM in experiment [1] (setting [4]), 5.01 nM in experiment [2] (setting [5]) and around 1.86 nM in experiment [3] (setting [6]).
`Nc1ncnc2c1ccn2[C@@H]1O[C@H](CNc2ccc3cc(Cl)cnc3c2)[C@@H](O)[C@H]1O` [Compound 50]: the IC50 is 10 nM in experiment [1] (setting [4]), 7.94 nM in experiment [2] (setting [5]) and 25.1 nM in experiment [3] (setting [6]).

(Values after patent publication US11318157B2, “6-6 bicyclic aromatic ring substituted nucleoside analogues for use as PRMT5 inhibitors” (Janssen Pharmaceutica NV, priority 2015, dated 2022).)
